Numbered stars: 1 amine (or outer) side, 2 acyl side, 3 side chain; on linkers, the order of the positions; unused ones are H or OH. Bridge positions count the residues as written; N and C are the ends. Square brackets hold non-standard residues; d marks the D form. Peptide text beside a SMILES is read from it. * marks the point of attachment. C20 diacid = O=C(O)CCCCCCCCCCCCCCCCCCC(=O)*; γGlu = O=C(O)[C@H](CCC(=O)[*:2])N[*:1]; NMeI = CC[C@H](C)[C@H](NC)C(=O)O; Sar = CNCC(=O)O

Five compounds from patent publication EP3046573B1, “AMYLIN ANALOGUES” (Zealand Pharma A/S, priority 2013, dated 2015) can be followed below.

The experiment addresses T1, human calcitonin receptor (hCTR2) (Homo sapiens, UniProt P30988).
T1 construct: expressed in transfected cells
T1 sequence (P30988 25-474): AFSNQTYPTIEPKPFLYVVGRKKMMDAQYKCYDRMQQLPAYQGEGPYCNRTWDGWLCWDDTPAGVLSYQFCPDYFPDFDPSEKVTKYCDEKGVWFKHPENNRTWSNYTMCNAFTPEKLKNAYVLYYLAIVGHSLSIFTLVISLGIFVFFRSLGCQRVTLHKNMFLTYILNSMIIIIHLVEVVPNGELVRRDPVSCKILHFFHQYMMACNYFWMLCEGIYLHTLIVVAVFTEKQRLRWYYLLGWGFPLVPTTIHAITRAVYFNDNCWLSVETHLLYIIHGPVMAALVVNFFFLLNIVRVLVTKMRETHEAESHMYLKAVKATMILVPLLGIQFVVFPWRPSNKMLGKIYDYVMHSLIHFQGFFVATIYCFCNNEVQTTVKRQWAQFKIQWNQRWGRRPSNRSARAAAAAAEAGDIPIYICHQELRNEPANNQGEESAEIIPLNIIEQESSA
Put plainly: hCTR2 assay: induction of cAMP (AlphaScreen cAMP Assay kit) in COS7 cells expressing hCTR2. In kind it is cell-based. The source says: The cell line COS7, originating from African Green Monkey kidney fibroblast cells, was used for establishment of the stable cell lines described below. The COS7 cellular background was used due to it being RAMP naive, and as such it provides the best available system for testing of the monomeric hCTR and different heterodimeric amylin receptor subtypes functionally generated by introduction of the individual RAMPs.
A cell line expressing the human calcitonin receptor (hCTR2) was generated in the COS7 cellular background as stable clones. In brief, hCTR2 (GI: 4502547) was amplified by PCR using primers encoding terminal restriction sites for subcloning. The 5'-end primers additionally encoded a near Kozak consensus sequence to ensure efficient translation. The fidelity of the DNA encoding the receptor was confirmed by DNA sequencing. The PCR products encoding the receptor were subcloned into a mammalian expression vector containing a neomycin (G418) resistance marker. The mammalian expression vector encoding the receptor was transfected into COS7 cells by a standard liposome transfection method. 48 hours post-transfection, cells were seeded for limited dilution cloning and selected with 1 mg/ml G418 in the culture medium. After 3 weeks, surviving colonies of hCTR2-expressing cells were picked, propagated and tested in the amylin efficacy assay as described in Example 3 below. One hCTR2-expressing clone was chosen for compound profiling.
In vitro activity of test peptides at the hCTR2 and hAMYR3 receptors was assessed by measuring the induction of cAMP following stimulation of the receptor by pramlintide or peptides of the invention using the AlphaScreen® cAMP Assay kit from Perkin-Elmer.
Briefly, COS7 cells expressing hCTR2 (see Example 2, above) were seeded at 30-40,000 cells per well in 96-well microtiter plates coated with 0.01 % poly-L-lysine, and grown for 1 day in culture in 100 µl growth medium [DMEM, 10% FCS, Penicillin (100 IU/ml), Streptomycin (100 µg/ml)]. On the day of analysis, growth medium was removed and the cells were washed once with 200 µl Tyrode buffer [Tyrode's Salts (9.6 g/l), 10 mM HEPES, pH 7.4]. Cells were incubated in 100 µl Tyrode buffer containing increasing concentrations of test peptides, 100 µM IBMX and 0.1% casein for 15 min at 37° C. The reaction was stopped by carefully decanting off the compound/buffer medium and replacing it with lysis/detection buffer (80 µl 0.1 % w/v BSA, 5 mM HEPES, 0.3 % v/v Tween-20 in deionized water). After incubation at room temperature for 10 min., the cAMP content of the resulting cell lysate was estimated according to the AlphaScreen® cAMP Assay manufacturer's instructions. EC50 values and relative efficacy values (in %) compared to reference peptide (Pramlintide) were estimated by computer-aided curve fitting using the 4-parameter logistic (4PL) non-linear model.
The in vitro activity results (expressed as EC50 values) for peptides of the invention and for Pramlintide (reference peptide) are summarized in Table 2, below.
In general terms: Alpha assays give light when donor and acceptor beads are brought close together.
For the compound `CC[C@H](C)[C@@H](C(=O)N[C@@H](CC(C)C)C(=O)N[C@@H](CO)C(=O)N[C@@H](CO)C(=O)N[C@H](C(=O)N[C@@H](CC(N)=O)C(=O)N[C@H](C(=O)NCC(=O)N[C@@H](CO)C(=O)N[C@@H](CC(N)=O)C(=O)N[C@H](C(=O)N1CCC[C@H]1C(N)=O)[C@@H](C)O)C(C)C)[C@@H](C)O)N(C)C(=O)[C@H](C)NC(=O)CN(C)C(=O)[C@H](Cc1ccccc1)NC(=O)[C@H](CC(N)=O)NC(=O)[C@H](CC(N)=O)NC(=O)[C@H](CO)NC(=O)[C@H](CO)NC(=O)[C@H](Cc1c[nH]cn1)NC(=O)[C@H](Cc1c[nH]cn1)NC(=O)[C@H](CC(C)C)NC(=O)[C@H](Cc1ccccc1)NC(=O)[C@H](CCC(=O)O)NC(=O)[C@@H](C)NC(=O)[C@H](CC(C)C)NC(=O)[C@H](CCCNC(=N)N)NC(=O)[C@H](CCC(N)=O)NC(=O)[C@@H](NC(=O)[C@H](C)NC(=O)[C@@H]1CSSC[C@H](NC(=O)[C@H](CCCNC(=N)N)NC(=O)CC[C@H](NC(=O)CCCCCCCCCCCCCCCCCCC(=O)O)C(=O)O)C(=O)N[C@@H]([C@@H](C)O)C(=O)N[C@@H](C)C(=O)N[C@@H]([C@@H](C)O)C(=O)N1)[C@@H](C)O` [Compound 7, [19CD]-isoGlu-RC()TATC()ATQRL-DAla-EFLHHSSNNF-Gly(Me)-A-Ile(Me)-LSSTNVGSNTP-NH2] ({C20 diacid-γGlu}-RCTATCATQRL[dA]EFLHHSSNNF[Sar]A[NMeI]LSSTNVGSNTP-NH2; disulfide 2-6), the half-maximal effective concentration (EC50) was found to be 1.9 nM.

On to `CC[C@H](C)[C@@H](C(=O)N[C@@H](CC(C)C)C(=O)N[C@@H](CO)C(=O)N[C@@H](CO)C(=O)N[C@H](C(=O)N[C@@H](CC(N)=O)C(=O)N[C@H](C(=O)NCC(=O)N[C@@H](CO)C(=O)N[C@@H](CC(N)=O)C(=O)N[C@H](C(=O)N1CCC[C@H]1C(N)=O)[C@@H](C)O)C(C)C)[C@@H](C)O)N(C)C(=O)[C@H](C)NC(=O)CN(C)C(=O)[C@H](Cc1ccccc1)NC(=O)[C@H](CC(N)=O)NC(=O)[C@H](CC(N)=O)NC(=O)[C@H](CO)NC(=O)[C@H](CO)NC(=O)[C@H](Cc1c[nH]cn1)NC(=O)[C@H](Cc1c[nH]cn1)NC(=O)[C@H](CC(C)C)NC(=O)[C@H](Cc1ccccc1)NC(=O)[C@@H](CCC(=O)O)NC(=O)[C@H](C)NC(=O)[C@H](CC(C)C)NC(=O)[C@H](CCCNC(=N)N)NC(=O)[C@H](CCC(N)=O)NC(=O)[C@@H](NC(=O)[C@H](C)NC(=O)[C@@H]1CSSC[C@H](NC(=O)[C@H](CCCNC(=N)N)NC(=O)CC[C@H](NC(=O)CCCCCCCCCCCCCCCCCCC(=O)O)C(=O)O)C(=O)N[C@@H](CC(N)=O)C(=O)N[C@@H]([C@@H](C)O)C(=O)N[C@@H](C)C(=O)N[C@@H]([C@@H](C)O)C(=O)N1)[C@@H](C)O` [Compound 8, [19CD]-isoGlu-RC()NTATC()ATQRLA-DGlu-FLHHSSNNF-Gly(Me)-A-Ile(Me)-LSSTNVGSNTP-NH2] ({C20 diacid-γGlu}-RCNTATCATQRLA[dE]FLHHSSNNF[Sar]A[NMeI]LSSTNVGSNTP-NH2; disulfide 2-7), for which the 50% effective concentration (EC50) worked out at 2.6 nM. With `CC[C@H](C)[C@@H](C(=O)N[C@@H](CC(C)C)C(=O)N[C@@H](CO)C(=O)N[C@@H](CO)C(=O)N[C@H](C(=O)N[C@@H](CC(N)=O)C(=O)N[C@H](C(=O)NCC(=O)N[C@@H](CO)C(=O)N[C@@H](CC(N)=O)C(=O)N[C@H](C(=O)N1CCC[C@H]1C(N)=O)[C@@H](C)O)C(C)C)[C@@H](C)O)N(C)C(=O)[C@H](C)NC(=O)CN(C)C(=O)[C@H](Cc1ccccc1)NC(=O)[C@H](CC(N)=O)NC(=O)[C@H](CC(N)=O)NC(=O)[C@H](CO)NC(=O)[C@H](CO)NC(=O)[C@H](Cc1c[nH]cn1)NC(=O)[C@H](Cc1c[nH]cn1)NC(=O)[C@H](CC(C)C)NC(=O)[C@@H](Cc1ccccc1)NC(=O)[C@H](CCC(=O)O)NC(=O)[C@H](C)NC(=O)[C@H](CC(C)C)NC(=O)[C@H](CCCNC(=N)N)NC(=O)[C@H](CCC(N)=O)NC(=O)[C@@H](NC(=O)[C@H](C)NC(=O)[C@@H]1CSSC[C@H](NC(=O)[C@H](CCCNC(=N)N)NC(=O)CC[C@H](NC(=O)CCCCCCCCCCCCCCCCCCC(=O)O)C(=O)O)C(=O)N[C@@H](CC(N)=O)C(=O)N[C@@H]([C@@H](C)O)C(=O)N[C@@H](C)C(=O)N[C@@H]([C@@H](C)O)C(=O)N1)[C@@H](C)O` [Compound 9, [19CD]-isoGlu-RC()NTATC()ATQRLAE-DPhe-LHHSSNNF-Gly(Me)-A-Ile(Me)-LSSTNVGSNTP-NH2] ({C20 diacid-γGlu}-RCNTATCATQRLAE[dF]LHHSSNNF[Sar]A[NMeI]LSSTNVGSNTP-NH2; disulfide 2-7), the half-maximal effective concentration (EC50) was 1.1 nM. For the compound `CC[C@H](C)[C@@H](C(=O)N[C@@H](CC(C)C)C(=O)N[C@@H](CO)C(=O)N[C@@H](CO)C(=O)N[C@H](C(=O)N[C@@H](CC(N)=O)C(=O)N[C@H](C(=O)NCC(=O)N[C@@H](CO)C(=O)N[C@@H](CC(N)=O)C(=O)N[C@H](C(=O)N1CCC[C@H]1C(N)=O)[C@@H](C)O)C(C)C)[C@@H](C)O)N(C)C(=O)[C@H](C)NC(=O)CN(C)C(=O)[C@H](Cc1ccccc1)NC(=O)[C@H](CC(N)=O)NC(=O)[C@H](CC(N)=O)NC(=O)[C@H](CO)NC(=O)[C@H](CO)NC(=O)[C@H](Cc1c[nH]cn1)NC(=O)[C@@H](Cc1c[nH]cn1)NC(=O)[C@H](CC(C)C)NC(=O)[C@H](Cc1ccccc1)NC(=O)[C@H](CCC(=O)O)NC(=O)[C@H](C)NC(=O)[C@H](CC(C)C)NC(=O)[C@H](CCCNC(=N)N)NC(=O)[C@H](CCC(N)=O)NC(=O)[C@@H](NC(=O)[C@H](C)NC(=O)[C@@H]1CSSC[C@H](NC(=O)[C@H](CCCNC(=N)N)NC(=O)CC[C@H](NC(=O)CCCCCCCCCCCCCCCCCCC(=O)O)C(=O)O)C(=O)N[C@@H](CC(N)=O)C(=O)N[C@@H]([C@@H](C)O)C(=O)N[C@@H](C)C(=O)N[C@@H]([C@@H](C)O)C(=O)N1)[C@@H](C)O` [Compound 11, [19CD]-isoGlu-RC()NTATC()ATQRLAEFL-DHis-HSSNNF-Gly(Me)-A-Ile(Me)-LSSTNVGSNTP-NH2] ({C20 diacid-γGlu}-RCNTATCATQRLAEFL[dH]HSSNNF[Sar]A[NMeI]LSSTNVGSNTP-NH2; disulfide 2-7), the EC50 is 2.3 nM.

As to `CC[C@H](C)[C@@H](C(=O)N[C@@H](CC(C)C)C(=O)N[C@@H](CO)C(=O)N[C@@H](CO)C(=O)N[C@H](C(=O)N[C@@H](CC(N)=O)C(=O)N[C@H](C(=O)NCC(=O)N[C@@H](CO)C(=O)N[C@@H](CC(N)=O)C(=O)N[C@H](C(=O)N1CCC[C@H]1C(N)=O)[C@@H](C)O)C(C)C)[C@@H](C)O)N(C)C(=O)[C@H](C)NC(=O)CN(C)C(=O)[C@H](Cc1ccccc1)NC(=O)[C@H](CC(N)=O)NC(=O)[C@H](CC(N)=O)NC(=O)[C@H](CO)NC(=O)[C@H](CO)NC(=O)[C@@H](Cc1c[nH]cn1)NC(=O)[C@H](Cc1c[nH]cn1)NC(=O)[C@H](CC(C)C)NC(=O)[C@H](Cc1ccccc1)NC(=O)[C@H](CCC(=O)O)NC(=O)[C@H](C)NC(=O)[C@H](CC(C)C)NC(=O)[C@H](CCCNC(=N)N)NC(=O)[C@H](CCC(N)=O)NC(=O)[C@@H](NC(=O)[C@H](C)NC(=O)[C@@H]1CSSC[C@H](NC(=O)[C@H](CCCNC(=N)N)NC(=O)CC[C@H](NC(=O)CCCCCCCCCCCCCCCCCCC(=O)O)C(=O)O)C(=O)N[C@@H](CC(N)=O)C(=O)N[C@@H]([C@@H](C)O)C(=O)N[C@@H](C)C(=O)N[C@@H]([C@@H](C)O)C(=O)N1)[C@@H](C)O` [Compound 12, [19CD]-isoGlu-RC()NTATC()ATQRLAEFLH-DHis-SSNNF-Gly(Me)-A-Ile(Me)-LSSTNVGSNTP-NH2] ({C20 diacid-γGlu}-RCNTATCATQRLAEFLH[dH]SSNNF[Sar]A[NMeI]LSSTNVGSNTP-NH2; disulfide 2-7), the EC50 was found to be 0.088 nM.

Usually EC50 stands for the midpoint of the concentration-response curve.
